Patent US20050209278A1, “Piperidinyl- and piperazinyl-sulfonylmethyl hydroxamic acids and their use as protease inhibitors” (priority 2002, published 2005)
Like-named read-outs stand apart in the source and are kept apart here.

How the values were obtained:
[1] = biological target: T1, MMP-9 (Homo sapiens, UniProt P14780); test: In vitro MMP inhibition, Ki determination (fluorogenic substrate II); type: biochemical
T1 construct: made in house; host or cells: MMP-9-transfected HT1080 cells (spent media)
T1 sequence (P14780 107-707 limits assumed): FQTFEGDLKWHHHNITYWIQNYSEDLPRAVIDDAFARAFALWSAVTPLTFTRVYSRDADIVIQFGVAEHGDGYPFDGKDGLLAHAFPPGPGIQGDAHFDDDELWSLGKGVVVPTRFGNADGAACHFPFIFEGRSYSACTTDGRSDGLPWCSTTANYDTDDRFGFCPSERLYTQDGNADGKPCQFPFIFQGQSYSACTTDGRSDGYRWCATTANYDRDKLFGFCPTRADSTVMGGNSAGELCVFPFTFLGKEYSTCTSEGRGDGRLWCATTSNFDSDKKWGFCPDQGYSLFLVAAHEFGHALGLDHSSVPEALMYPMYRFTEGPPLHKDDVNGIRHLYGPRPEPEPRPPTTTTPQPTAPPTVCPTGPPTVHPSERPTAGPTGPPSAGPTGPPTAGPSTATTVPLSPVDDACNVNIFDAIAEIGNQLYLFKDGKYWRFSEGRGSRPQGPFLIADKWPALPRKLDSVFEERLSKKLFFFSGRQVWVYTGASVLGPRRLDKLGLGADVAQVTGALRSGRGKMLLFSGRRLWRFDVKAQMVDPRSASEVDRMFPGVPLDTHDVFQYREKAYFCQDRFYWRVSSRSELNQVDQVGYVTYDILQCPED
Summary of the method: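 HT1080-derived MMP-9, activated with APMA, trypsin or MMP-3, incubated 1 hr at room temperature with inhibitor and 4 μM fluorogenic substrate II (at or below Km) in pH 7.5 Tris/NaCl/CaCl2 buffer; ex 330/em 420 nm. Ki from Morrison-equation regression, without substrate correction.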

[2] = biological target: T2, MMP-13 (Homo sapiens, UniProt P45452); test: as above; type: biochemical; settings: read-out: MMP-13 Ki
T2 construct: made in house; host or cells: baculovirus / insect cells
Summary of the method: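 Room-temperature, 1 h incubation of APMA-activated recombinant human MMP-13 with 4 μM quenched substrate II (cleaved at Gly-Leu) in pH 7.5 Tris/NaCl/CaCl2 buffer. Inhibition appears as a slowed rise in 330/420 nm fluorescence. Single low enzyme and substrate levels were used for Ki.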

Row | Compound | Ki ([1]; value outside parentheses) [nM] | Ki ([2]; value outside parentheses) [nM] | Ki ([1]; value not in parenthesis) [nM] | Ki ([2]; value not in parenthesis) [nM]
1 | CCCCCC/C=C/C1CCN(S(=O)(=O)C2(C(=O)NO)CCOCC2)CC1 [Example 402] | 0.19 | 0.58 |  | 
2 | CCCCCC/C=C\C1CCN(S(=O)(=O)C2(C(=O)NO)CCOCC2)CC1 [Example 401] | 4.22 | 9.05 |  | 
3 | O=C(NO)C1(S(=O)(=O)N2CCN(c3ncc(-c4ccc(Cl)cc4)cn3)CC2)CCOCC1 [Example 66] |  |  | 0.52 | 0.25
4 | CCCC#Cc1cnc(N2CCN(S(=O)(=O)C3(C(=O)NO)CCOCC3)CC2)s1 [Example 400] | 1.4 | 0.28 |  | 
5 | CCCCc1cnc(N2CCN(S(=O)(=O)C3(C(=O)NO)CCOCC3)CC2)nc1 [Example 105] |  |  | 0.74 | 1.88
6 | O=C(NO)C1(S(=O)(=O)N2CCN(c3nc(-c4ccccc4)cs3)CC2)CCOCC1 [Example 415] | > 10000 | 2420 |  | 
7 | Cc1cccc(-c2csc(N3CCN(S(=O)(=O)C4(C(=O)NO)CCOCC4)CC3)n2)c1 [Example 413] | > 10000 | 4830 |  | 
8 | N#Cc1ccc(-c2cnc(N3CCN(S(=O)(=O)C4(C(=O)NO)CCOCC4)CC3)s2)cc1 [Example 399] | 0.57 | 0.04 |  | 
9 | Cc1ccc(-c2csc(N3CCN(S(=O)(=O)C4(C(=O)NO)CCOCC4)CC3)n2)cc1 [Example 412] | > 10000 | > 10000 |  | 
10 | O=C(NO)C1(S(=O)(=O)N2CCN(c3ccc(-c4nn[nH]n4)cc3)CC2)CCOCC1 [Example 419] | 112 | 34 |  | 
11 | CCCCc1ccc(C2CCN(S(=O)(=O)C3(C(=O)NO)CCN(CCOC)CC3)CC2)nc1 [Example 397] | 0.09 | 0.54 |  | 

Further lines, results first:

Row | Ki ([1]; value outside parentheses) [nM] | Ki ([2]; value outside parentheses) [nM] | Ki ([1]; value not in parenthesis) [nM] | Ki ([2]; value not in parenthesis) [nM] | Compound
12 | 0.76 | 1.28 |  |  | CCCCCCCOC1CCN(S(=O)(=O)C2(C(=O)NO)CCOCC2)CC1 [Example 406]
13 | 3.39 | 0.18 |  |  | O=C(NO)C1(S(=O)(=O)N2CCC(COCc3ccc(SC(F)(F)F)cc3)CC2)CCOCC1 [Example 405]
14 | 7.37 | 2.47 |  |  | O=C(NO)C1(S(=O)(=O)N2CCC(COCc3ccc(C(F)(F)F)cc3)CC2)CCOCC1 [Example 403]
15 | 5.67 | 0.15 |  |  | O=C(NO)C1(S(=O)(=O)N2CCC(c3ccc(OCc4ccccc4)cn3)CC2)CCOCC1 [Example 398]
16 |  |  | 0.16 | 0.21 | CCCCc1ccc(N2CCN(S(=O)(=O)C3(C(=O)NO)CCOCC3)CC2)nc1 [Example 168]
17 | 80.3 | 175 |  |  | CCCCc1ccc(C2(O)CCN(S(=O)(=O)C3(C(=O)NO)CCOCC3)CC2)nc1 [Example 420]
18 | 2.29 | 0.33 |  |  | O=C(NO)C1(S(=O)(=O)N2CCC(COCc3ccc(OC(F)(F)F)cc3)CC2)CCOCC1 [Example 404]
19 | 4.1 | 3.84 |  |  | O=C(NO)C1(S(=O)(=O)N2CCC(c3ccc(-c4cccc(F)c4)cn3)CC2)CCOCC1 [Example 417]
20 | 2.04 | 7.75 |  |  | CCC(F)(F)CCc1ccc(C2CCN(S(=O)(=O)C3(C(=O)NO)CCOCC3)CC2)cn1 [Example 411]
21 | 13.6 | 22.3 |  |  | O=C(NO)C1(S(=O)(=O)N2CCC(c3ccc(-c4ccccn4)cn3)CC2)CCOCC1 [Example 409]
22 | 1.49 | 1.35 |  |  | Cc1ccc(-c2ccc(C3CCN(S(=O)(=O)C4(C(=O)NO)CCOCC4)CC3)nc2)s1 [Example 416]
23 | 4.86 | 1.09 |  |  | CCc1ccc(-c2ccc(C3CCN(S(=O)(=O)C4(C(=O)NO)CCOCC4)CC3)nc2)cc1 [Example 393]
24 | 1.86 | 0.46 |  |  | O=C(NO)C1(S(=O)(=O)N2CCC(c3ccc(OCCC(F)(F)F)cn3)CC2)CCOCC1 [Example 418]
25 | 10.2 | 11 |  |  | O=C(NO)C1(S(=O)(=O)N2CCC(c3ccc(N4CCCC4)cn3)CC2)CCOCC1 [Example 408]
26 | 0.55 | 0.2 |  |  | CCCCOc1ccc(C2CCN(S(=O)(=O)C3(C(=O)NO)CCOCC3)CC2)nc1 [Example 410]
27 | 1.9 | 0.78 |  |  | O=C(NO)C1(S(=O)(=O)N2CCC(c3ccc(-c4cccs4)c(F)c3)CC2)CCOCC1 [Example 407]
